# Reference: patent US7226949B2, “Compounds of use in the treatment of epilepsy, seizure, and electroconvulsive disorders” (University of Kentucky, priority 2002, dated 2007)
# Tests used:
# rats = assay: Minimal neurotoxicity in rats, positional sense and gait and stance tests; assay type: in vivo; conditions: 250 mg/kg
# Text: If the rat experiences neurological toxicity, it will not be able to quickly lift its leg quickly back to a normal position.
# In the gait and stance test, neurotoxicity is indicated by a circular or zigzag gait after administration of the test compound. In addition, ataxia, abnormal spread of the legs, abnormal posture, tremor hyperactivity, lack of exploratory behavior, somnolence, stupor, or catalepsy can indicate neurotoxicity.
# MES-induced seizure [1] = assay: Maximal Electroshock Seizure (MES) test in mice, intraperitoneal administration; assay type: in vivo
# Text: (§1) The Maximal Electroshock Seizure (MES) or Maximal Seizure Pattern Test
# (§2) The MES is an experimental model for generalized tonic-clonic seizures that identifies compounds that prevent seizure spread. The MES model is highly reproducible and has a consistent endpoint. An advantage of this model is that the behavioral and electrographic seizures are consistent with those observed in humans.
# (§3) In the MES test, the animal receives an electrical stimulus, 0.2 seconds in duration, via corneal electrodes primed with an electrolyte solution containing an anesthetic agent. The 0.2 second stimulation is generated with 150 mA in rats and 50 mA in mice at 60 Hz. […] In rats, the compound is administered orally, while mice receive the agent via intraperitoneal injection. The test endpoint, electrogenic seizure, is manifested as hindlimb tonic extension.
# mice = assay: Minimal neurotoxicity in mice, rotorod test; conditions: 100 mg/kg
# Procedure: In mice, the test compound is administered at doses of 30, and 100 mg/kg prior to evaluation in the toxicity screens. The mice are tested at 0.5 hours and 4 hours after intraperitoneal administration of the test compound.
# Toxicity in mice weighing between 18 and 25.5 g is assessed using the standardized rotorod test [9]. For each compound tested, a minimum of 18 animals are evaluated for neurotoxicity. Control mice can maintain their equilibrium for an extended period of time when they are placed on a 6-rpm rotation rod. Neurologically impaired animals cannot maintain equilibrium for one minute in each of three successive trials.
# 6 Hz seizures = assay: 6 Hz kindling model; assay type: in vivo, mice
# Procedure: The 6 Hz kindling model is another experimental seizure model that effectively detects compounds with anti-seizure activity. This screen is used to evaluate the ability of a compound to prevent the acquisition of focal seizures; in particular, the capacity of a compound to prevent the development of seizures induced by a low-frequency (6 Hz), long duration (three seconds) stimulus in electrode […] is evaluated. Several of the most promising compounds were evaluated in this screen to further characterize their anti-seizure activity.
# In the 6 Hz kindling test, mice are implanted with corneal electrodes. The test compound is administered (i.p.) to the animal at 0.25, 0.5, 1, 2, or 4 hours prior seizure induction. The seizure is initiated by delivering a current (32 mA at 6 Hz for three seconds) to the animal through the corneal electrodes. The resulting psychomotor seizure is usually characterized by a minimal clonic phase followed by stereotyped, automatistic behaviors. This response is analogous to the aura of human patients with partial seizures.
# [2] = system: focal seizures in hippocampal kindled rats; assay: Hippocampal kindling model; assay type: in vivo, Sprague-Dawley rats; conditions: hippocampal kindling model; not as effective as 4,4′-thiodianiline
# Text: Hippocampal Kindling Model
# The hippocampal kindling model is an experimental seizure model used to simulate focal seizures. This model evaluates the capacity of a compound to affect both the expression and acquisition of focal seizures. In addition, kindled seizures provide a methodology for studying complex brain networks that may contribute to the spread and generalizations of seizures from a focus. The hippocampal kindling model has the advantage of being one of the only kindling models that can evaluate the temporal effects of an agent in a single animal. For this assessment, bipolar electrodes are surgically implanted in the ventral hippocampus of adult male Sprague-Dawley rats (275-300 g) under ketamine-xylazine anesthesia. Following a one-week recovery period, stage five behavioral seizures are induced by stimulating the rat 12 times per day with 50 Hz, 10 s train of 1 ms biphasic 200 μA pulses delivered every 30 min for six hours on alternating days. After five stimulus days, the animal has had 60 stimulations. A drug free control period with supramaximal stimulations is used to verify the stability of a stage five generalized seizure before the anticonvulsant activity of a drug is measured.
# This screen is used to measure the capacity of the drug to prevent the expression of focal seizures. […] The animal is exposed to an initial stimulation of 20 μA; the stimulation is increased in 10 μA increments every one-two minutes until an afterdischarge is recorded. After the stability of the stage five seizure is established, the drug candidate is administered to the rats via intraperitoneal injection 15 minutes after the last control stimulation. Starting with the first dose, the anticonvulsant activity of the test agent is measured every thirty minutes for four hours. Following each stimulation, Racine seizure scores and afterdischarge durations are compared to control values to quantify the anti-convulsant activity of the agent. The Racine seizure scores vary from stage 1 to 5. The stages are characterized according to the following criteria: Stage 1—mouth and facial clonus, Stage 2—stage 1 and head nodding, Stage 3—stage 2 and forelimb clonus, Stage 4—stage 3 and rearing, Stage 5—stage 4 and repeated rearing and falling. Since a single animal is used, each rat serves as its own control.
# 4,4′-Thiodianiline was used in the rat hippocampal kindled rats to screen to measure its anticonvulsant potential. Doses of 12.5, 25, 50 and 100 mg/kg were evaluated at a minimum of seven time points (n=7 for each dose and each time point). […] After oral administration of the test compound stimulation, the Racine seizure scores and afterdischarge durations were measured and are shown below. The Racine seizure scores dropped from between a stage 4 and stage 5 seizure for control measurements to between a stage 1 and stage 2 seizure after treatment with 4,4′-thiodianiline.
# MES-induced seizure [3] = assay: Maximal Electroshock Seizure (MES) test in rats, oral administration; assay type: in vivo; conditions: for Percentage of rats in which the test compound prevented MES-induced seizure: 30 mg/kg oral
# Text: as §1, §2, §3
# A full dose-response curve was also generated in rats to determine the ED50 value (n=8 at each time point). […] The ED50 of 4,4′-thiodianiline was evaluated in both rats and mice.
# [4] = 30 mg/kg i.p., 0.5 h after administration
# [5] = 100 mg/kg i.p., 0.5 h after administration
# [6] = 100 mg/kg i.p., 4.0 h after administration
smiles,measurement,setting,value
"Nc1ccc(Oc2ccc(N)cc2)cc1 [4,4′-diaminodiphenyl ether]",toxicity,rats,no significant toxicity
same,Percentage of mice in which the test compound prevented MES-induced seizure,MES-induced seizure [1]; [4],0%
same,Percentage of mice in which the test compound prevented MES-induced seizure,"MES-induced seizure [1]; 30 mg/kg i.p., 4.0 h after administration",0%
same,Percentage of mice in which the test compound prevented MES-induced seizure,MES-induced seizure [1]; [5],100%
same,Percentage of mice in which the test compound prevented MES-induced seizure,MES-induced seizure [1]; [6],100%
same,Percentage of mice in which the test compound prevented MES-induced seizure,"MES-induced seizure [1]; 300 mg/kg i.p., 0.5 h after administration",100%
same,Percentage of mice in which the test compound prevented MES-induced seizure,"MES-induced seizure [1]; 300 mg/kg i.p., 4.0 h after administration",100%
same,toxicity,mice,no significant toxicity
same,Percentage of mice in which the test compound prevented seizure in the 6 Hz test,"6 Hz seizures; 30 mg/kg i.p., 0.25 h after administration",0%
same,Percentage of mice in which the test compound prevented seizure in the 6 Hz test,6 Hz seizures; [4],50%
same,Percentage of mice in which the test compound prevented seizure in the 6 Hz test,"6 Hz seizures; 30 mg/kg i.p., 1.0 h after administration",25%
same,Percentage of mice in which the test compound prevented seizure in the 6 Hz test,"6 Hz seizures; 30 mg/kg i.p., 2.0 h after administration",25%
same,Percentage of mice in which the test compound prevented seizure in the 6 Hz test,"6 Hz seizures; 100 mg/kg i.p., 0.25 h after administration",100%
same,Percentage of mice in which the test compound prevented seizure in the 6 Hz test,6 Hz seizures; [5],100%
same,Percentage of mice in which the test compound prevented seizure in the 6 Hz test,"6 Hz seizures; 100 mg/kg i.p., 1.0 h after administration",100%
same,Percentage of mice in which the test compound prevented seizure in the 6 Hz test,"6 Hz seizures; 100 mg/kg i.p., 2.0 h after administration",100%
same,Percentage of mice in which the test compound prevented seizure in the 6 Hz test,6 Hz seizures; [6],0%
same,expression of fully kindled seizures,[2],had the capacity to block the expression of fully kindled seizures
same,Percentage of rats in which the test compound prevented MES-induced seizure,MES-induced seizure [3]; 0.25 h after administration,100%
same,Percentage of rats in which the test compound prevented MES-induced seizure,MES-induced seizure [3]; 0.5 h after administration,100%
same,Percentage of rats in which the test compound prevented MES-induced seizure,MES-induced seizure [3]; 1.0 h after administration,75%
same,Percentage of rats in which the test compound prevented MES-induced seizure,MES-induced seizure [3]; 2.0 h after administration,75%
same,Percentage of rats in which the test compound prevented MES-induced seizure,MES-induced seizure [3]; 4.0 h after administration,100%
same,Time to Peak Effect,"MES-induced seizure [3]; rat, oral administration, MES test",6 h
same,ED50 required to inhibit MES-induced seizure,"MES-induced seizure [3]; rat, oral administration, at the time of peak effect, n=8",5.24 ± 4.67 mg/kg
